Results reported in patent publication EP2277860B1, “Compositions comprising sulfonated estolides and alkyl ester sulfonates, methods of making them, and compositions and processes employing them” (STEPAN COMPANY, priority 2009, dated 2011).

Test: CMC via the Wilhelmy plate technique
Format: physicochemical
Method: Not to be bound by theory, surfactants with low CMC values tend to be more mild to enzymes based on low monomer concentrations in solution which interfere with enzyme stability. The measured CMC, via the Wilhelmy plate technique, of SHP is 30 mg/L while that of the sodium salt of AES is 80 mg/L and NaLAS is 900 mg/L.

CMC: 900 mg/L
Substance: linear alkylbenzene sulfonic acid, sodium salt [NaLAS]
